Results reported in PubChem BioAssay (NCI).
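Grown in 96-well plates, cells were treated for 48 hours with each compound at five concentrations. Insufficient inhibition: endpoint recorded as highest concentration tested. At the GI50, growth is halved. At the TGI there is no net growth.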

Key:
Assay in all cases: NCI tumour cell line growth inhibition, 48 h
786-0 renal = system: 786-0 renal
A498 renal = system: A498 renal
A549 NSCLC = system: A549 NSCLC
ACHN renal = system: ACHN renal
BT-549 breast = system: BT-549 breast
CAKI-1 renal = system: CAKI-1 renal
CCRF-CEM leukemia = system: CCRF-CEM leukemia
COLO 205 colon = system: COLO 205 colon
DU-145 prostate = system: DU-145 prostate
EKVX NSCLC = system: EKVX NSCLC
HCT-116 colon = system: HCT-116 colon
HL-60(TB) leukemia = system: HL-60(TB) leukemia
HOP-62 NSCLC = system: HOP-62 NSCLC
HOP-92 NSCLC = system: HOP-92 NSCLC
HS 578T breast = system: HS 578T breast
HT29 colon = system: HT29 colon
IGROV1 ovarian = system: IGROV1 ovarian
K-562 leukemia = system: K-562 leukemia
LOX IMVI melanoma = system: LOX IMVI melanoma
M14 melanoma = system: M14 melanoma
MALME-3M melanoma = system: MALME-3M melanoma
MCF7 breast = system: MCF7 breast
MDA-MB-435 = system: MDA-MB-435
NCI-H226 lung = system: NCI-H226 lung
NCI-H460 lung = system: NCI-H460 lung
NCI-H522 lung = system: NCI-H522 lung
NCI/ADR-RES ovarian = system: NCI/ADR-RES ovarian
OVCAR-3 ovarian = system: OVCAR-3 ovarian
OVCAR-4 ovarian = system: OVCAR-4 ovarian
OVCAR-5 ovarian = system: OVCAR-5 ovarian
OVCAR-8 ovarian = system: OVCAR-8 ovarian
PC-3 prostate = system: PC-3 prostate
RPMI-8226 leukemia = system: RPMI-8226 leukemia
RXF 393 renal = system: RXF 393 renal
SF-268 CNS = system: SF-268 CNS
SF-295 CNS = system: SF-295 CNS
SF-539 CNS = system: SF-539 CNS
SK-MEL-2 melanoma = system: SK-MEL-2 melanoma
SK-MEL-28 melanoma = system: SK-MEL-28 melanoma
SK-MEL-5 melanoma = system: SK-MEL-5 melanoma
SK-OV-3 ovarian = system: SK-OV-3 ovarian
SN12C renal = system: SN12C renal
SNB-19 CNS = system: SNB-19 CNS
SNB-75 CNS = system: SNB-75 CNS
SW-620 colon = system: SW-620 colon
TK-10 renal = system: TK-10 renal
U251 CNS = system: U251 CNS
UACC-257 melanoma = system: UACC-257 melanoma
UACC-62 melanoma = system: UACC-62 melanoma
UO-31 renal = system: UO-31 renal

Cc1nc(Nc2ccc(F)c(Cl)c2)sc1C(=O)O
GI50 (786-0 renal): 1.74 µM
TGI (786-0 renal): 3.98 µM
GI50 (A498 renal): 1.64 µM
TGI (A498 renal): 4.16 µM
GI50 (A549 NSCLC): 1.68 µM
TGI (A549 NSCLC): 3.81 µM
GI50 (ACHN renal): 1.52 µM
TGI (ACHN renal): 3.24 µM
GI50 (BT-549 breast): 1.7 µM
TGI (BT-549 breast): 4.28 µM
GI50 (CAKI-1 renal): 1.9 µM
TGI (CAKI-1 renal): 7.34 µM
GI50 (CCRF-CEM leukemia): 3.01 µM
TGI (CCRF-CEM leukemia): > 100 µM
GI50 (COLO 205 colon): 1.64 µM
TGI (COLO 205 colon): 3.2 µM
GI50 (DU-145 prostate): 2.22 µM
TGI (DU-145 prostate): 7.84 µM
GI50 (EKVX NSCLC): 0.865 µM
TGI (EKVX NSCLC): 5.76 µM
GI50 (HCT-116 colon): 1.51 µM
TGI (HCT-116 colon): 3.34 µM
GI50 (HL-60(TB) leukemia): 3.41 µM
TGI (HL-60(TB) leukemia): 8.17 µM
GI50 (HOP-62 NSCLC): 1.42 µM
TGI (HOP-62 NSCLC): 2.93 µM
GI50 (HOP-92 NSCLC): 0.877 µM
TGI (HOP-92 NSCLC): 2.74 µM
GI50 (HS 578T breast): 1.87 µM
TGI (HS 578T breast): 5.44 µM
GI50 (HT29 colon): 1.67 µM
TGI (HT29 colon): 3.44 µM
GI50 (IGROV1 ovarian): 1.63 µM
TGI (IGROV1 ovarian): 5.03 µM
GI50 (K-562 leukemia): 2.65 µM
TGI (K-562 leukemia): > 100 µM
GI50 (LOX IMVI melanoma): 1.51 µM
TGI (LOX IMVI melanoma): 2.91 µM
GI50 (M14 melanoma): 1.73 µM
TGI (M14 melanoma): 3.66 µM
GI50 (MALME-3M melanoma): 1.65 µM
TGI (MALME-3M melanoma): 3.71 µM
GI50 (MCF7 breast): 1.53 µM
TGI (MCF7 breast): 8.18 µM
GI50 (MDA-MB-435): 2.13 µM
TGI (MDA-MB-435): 5.25 µM
GI50 (NCI-H226 lung): 1.77 µM
TGI (NCI-H226 lung): 5.37 µM
GI50 (NCI-H460 lung): 2.07 µM
TGI (NCI-H460 lung): 4.74 µM
GI50 (NCI-H522 lung): 1.1 µM
TGI (NCI-H522 lung): 3.17 µM
GI50 (NCI/ADR-RES ovarian): 1.78 µM
TGI (NCI/ADR-RES ovarian): 4.7 µM
GI50 (OVCAR-3 ovarian): 1.82 µM
TGI (OVCAR-3 ovarian): 4.47 µM
GI50 (OVCAR-4 ovarian): 1.74 µM
TGI (OVCAR-4 ovarian): 9.12 µM
GI50 (OVCAR-5 ovarian): 1.7 µM
TGI (OVCAR-5 ovarian): 4.1 µM
GI50 (OVCAR-8 ovarian): 2.14 µM
TGI (OVCAR-8 ovarian): 4.82 µM
GI50 (PC-3 prostate): 1.75 µM
TGI (PC-3 prostate): 4.8 µM
GI50 (RPMI-8226 leukemia): 2.16 µM
TGI (RPMI-8226 leukemia): 6.22 µM
GI50 (RXF 393 renal): 1.71 µM
TGI (RXF 393 renal): 3.94 µM
GI50 (SF-268 CNS): 1.76 µM
TGI (SF-268 CNS): 4.36 µM
GI50 (SF-295 CNS): 1.49 µM
TGI (SF-295 CNS): 3.15 µM
GI50 (SF-539 CNS): 1.58 µM
TGI (SF-539 CNS): 3.07 µM
GI50 (SK-MEL-2 melanoma): 1.97 µM
TGI (SK-MEL-2 melanoma): 3.8 µM
GI50 (SK-MEL-28 melanoma): 1.77 µM
TGI (SK-MEL-28 melanoma): 3.68 µM
GI50 (SK-MEL-5 melanoma): 1.48 µM
TGI (SK-MEL-5 melanoma): 2.82 µM
GI50 (SK-OV-3 ovarian): 1.83 µM
TGI (SK-OV-3 ovarian): 4.33 µM
GI50 (SN12C renal): 1.53 µM
TGI (SN12C renal): 3.56 µM
GI50 (SNB-19 CNS): 1.93 µM
TGI (SNB-19 CNS): 5.22 µM
GI50 (SNB-75 CNS): 1.18 µM
TGI (SNB-75 CNS): 4.31 µM
GI50 (SW-620 colon): 2.32 µM
TGI (SW-620 colon): 6.31 µM
GI50 (TK-10 renal): 1.96 µM
TGI (TK-10 renal): 4.09 µM
GI50 (U251 CNS): 1.44 µM
TGI (U251 CNS): 3.04 µM
GI50 (UACC-257 melanoma): 1.78 µM
TGI (UACC-257 melanoma): 3.36 µM
GI50 (UACC-62 melanoma): 1.17 µM
TGI (UACC-62 melanoma): 2.62 µM
GI50 (UO-31 renal): 1.16 µM
TGI (UO-31 renal): 2.82 µM
